Assays:
[1] = biological target: Voltage-gated inwardly rectifying potassium channel KCNH2 (Homo sapiens, UniProt Q12809); format: functional; conditions: read-out: AC50
[2] = biological target: T1, Alpha-1A adrenergic receptor (Homo sapiens, UniProt P35348); format: functional, cell-based
T1 sequence (P35348 whole entry): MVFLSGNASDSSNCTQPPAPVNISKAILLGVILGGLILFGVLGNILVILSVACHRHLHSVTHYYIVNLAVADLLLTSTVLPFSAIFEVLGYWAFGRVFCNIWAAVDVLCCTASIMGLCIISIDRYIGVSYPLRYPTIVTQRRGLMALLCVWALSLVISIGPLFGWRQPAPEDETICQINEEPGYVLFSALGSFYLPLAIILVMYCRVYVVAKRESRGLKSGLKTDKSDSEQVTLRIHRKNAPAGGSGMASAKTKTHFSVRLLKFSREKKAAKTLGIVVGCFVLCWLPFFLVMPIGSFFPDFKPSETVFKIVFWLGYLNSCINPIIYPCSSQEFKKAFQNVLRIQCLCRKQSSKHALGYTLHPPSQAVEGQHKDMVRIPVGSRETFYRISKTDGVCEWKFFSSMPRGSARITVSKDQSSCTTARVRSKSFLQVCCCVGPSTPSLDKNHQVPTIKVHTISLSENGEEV

[3] = biological target: D(3) dopamine receptor (Homo sapiens, UniProt P35462)
[4] = biological target: Sodium-dependent serotonin transporter (Homo sapiens, UniProt P31645)
[5] = biological target: Sodium-dependent dopamine transporter (Homo sapiens, UniProt Q01959)
[6] = biological target: Mu-type opioid receptor (Homo sapiens, UniProt P35372)
[7] = biological target: T2, Thromboxane A2 receptor (Homo sapiens, UniProt P21731); format: functional, cell-based
T2 sequence (P21731 whole entry): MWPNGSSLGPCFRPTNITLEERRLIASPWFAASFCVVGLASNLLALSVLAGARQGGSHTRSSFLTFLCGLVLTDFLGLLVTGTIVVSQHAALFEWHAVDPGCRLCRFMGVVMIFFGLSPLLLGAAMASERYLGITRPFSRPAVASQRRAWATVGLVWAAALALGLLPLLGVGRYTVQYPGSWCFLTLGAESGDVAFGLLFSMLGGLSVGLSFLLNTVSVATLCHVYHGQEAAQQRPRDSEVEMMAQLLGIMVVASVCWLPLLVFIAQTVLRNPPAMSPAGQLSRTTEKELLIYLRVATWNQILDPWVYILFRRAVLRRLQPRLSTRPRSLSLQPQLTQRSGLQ

[8] = biological target: T1, Alpha-1A adrenergic receptor; format: functional, cell-based; remark: listed apart in the source
[9] = biological target: D(1A) dopamine receptor (Homo sapiens, UniProt P21728)
[10] = biological target: Sodium-dependent noradrenaline transporter (Homo sapiens, UniProt P23975)
[11] = biological target: Acetylcholinesterase (Homo sapiens, UniProt P22303); format: functional
[12] = biological target: T2, Thromboxane A2 receptor; format: functional, cell-based; remark: listed apart in the source
[13] = biological target: T3, Amine oxidase [flavin-containing] A (Homo sapiens, UniProt P21397); format: functional
T3 sequence (P21397 whole entry): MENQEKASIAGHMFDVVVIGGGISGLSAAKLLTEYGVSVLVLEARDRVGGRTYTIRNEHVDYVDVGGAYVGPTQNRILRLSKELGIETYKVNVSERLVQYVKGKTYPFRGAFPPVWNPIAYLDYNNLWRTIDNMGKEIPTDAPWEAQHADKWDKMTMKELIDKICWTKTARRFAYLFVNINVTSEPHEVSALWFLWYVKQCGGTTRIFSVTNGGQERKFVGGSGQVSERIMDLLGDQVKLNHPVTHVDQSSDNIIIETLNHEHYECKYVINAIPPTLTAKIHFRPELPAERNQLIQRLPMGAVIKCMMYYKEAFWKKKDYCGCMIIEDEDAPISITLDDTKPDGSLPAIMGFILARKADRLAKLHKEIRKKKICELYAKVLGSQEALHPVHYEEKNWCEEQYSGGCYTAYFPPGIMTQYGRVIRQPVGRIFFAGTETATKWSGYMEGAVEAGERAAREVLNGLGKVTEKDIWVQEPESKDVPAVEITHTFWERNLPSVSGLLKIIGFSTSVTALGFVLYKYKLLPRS

[14] = biological target: Prostaglandin G/H synthase 1 (Homo sapiens, UniProt P23219); format: functional
[15] = biological target: T4, Estrogen receptor (Homo sapiens, UniProt P03372)
T4 sequence (P03372 whole entry): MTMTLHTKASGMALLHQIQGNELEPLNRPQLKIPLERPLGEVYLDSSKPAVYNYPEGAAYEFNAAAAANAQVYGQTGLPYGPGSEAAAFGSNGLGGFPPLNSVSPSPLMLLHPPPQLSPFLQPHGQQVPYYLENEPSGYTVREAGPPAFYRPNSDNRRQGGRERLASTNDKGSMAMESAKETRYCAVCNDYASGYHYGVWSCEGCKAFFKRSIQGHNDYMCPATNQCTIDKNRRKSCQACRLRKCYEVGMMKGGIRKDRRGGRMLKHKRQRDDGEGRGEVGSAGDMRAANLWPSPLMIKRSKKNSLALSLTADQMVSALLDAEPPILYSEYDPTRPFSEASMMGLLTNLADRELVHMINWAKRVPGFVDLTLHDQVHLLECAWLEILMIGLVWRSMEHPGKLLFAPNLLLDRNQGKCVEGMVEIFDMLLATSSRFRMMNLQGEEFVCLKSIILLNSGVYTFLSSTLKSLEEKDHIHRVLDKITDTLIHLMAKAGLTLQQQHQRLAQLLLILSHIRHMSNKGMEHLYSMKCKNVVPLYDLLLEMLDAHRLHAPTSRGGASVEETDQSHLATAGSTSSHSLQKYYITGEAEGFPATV
Note: assay procedure not described here.

D(1A) dopamine receptor, sequence (P21728 whole entry): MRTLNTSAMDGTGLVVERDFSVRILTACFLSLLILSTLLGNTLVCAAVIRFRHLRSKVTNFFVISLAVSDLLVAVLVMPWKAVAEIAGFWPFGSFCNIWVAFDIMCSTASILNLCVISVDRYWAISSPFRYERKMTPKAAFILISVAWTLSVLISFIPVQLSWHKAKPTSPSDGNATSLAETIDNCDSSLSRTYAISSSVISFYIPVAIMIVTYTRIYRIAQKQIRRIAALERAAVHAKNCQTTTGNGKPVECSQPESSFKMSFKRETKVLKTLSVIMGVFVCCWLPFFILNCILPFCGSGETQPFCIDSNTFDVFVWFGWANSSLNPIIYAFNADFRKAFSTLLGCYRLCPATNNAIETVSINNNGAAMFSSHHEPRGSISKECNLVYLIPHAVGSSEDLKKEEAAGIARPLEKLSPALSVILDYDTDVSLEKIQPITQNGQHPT
Prostaglandin G/H synthase 1, sequence (P23219 whole entry): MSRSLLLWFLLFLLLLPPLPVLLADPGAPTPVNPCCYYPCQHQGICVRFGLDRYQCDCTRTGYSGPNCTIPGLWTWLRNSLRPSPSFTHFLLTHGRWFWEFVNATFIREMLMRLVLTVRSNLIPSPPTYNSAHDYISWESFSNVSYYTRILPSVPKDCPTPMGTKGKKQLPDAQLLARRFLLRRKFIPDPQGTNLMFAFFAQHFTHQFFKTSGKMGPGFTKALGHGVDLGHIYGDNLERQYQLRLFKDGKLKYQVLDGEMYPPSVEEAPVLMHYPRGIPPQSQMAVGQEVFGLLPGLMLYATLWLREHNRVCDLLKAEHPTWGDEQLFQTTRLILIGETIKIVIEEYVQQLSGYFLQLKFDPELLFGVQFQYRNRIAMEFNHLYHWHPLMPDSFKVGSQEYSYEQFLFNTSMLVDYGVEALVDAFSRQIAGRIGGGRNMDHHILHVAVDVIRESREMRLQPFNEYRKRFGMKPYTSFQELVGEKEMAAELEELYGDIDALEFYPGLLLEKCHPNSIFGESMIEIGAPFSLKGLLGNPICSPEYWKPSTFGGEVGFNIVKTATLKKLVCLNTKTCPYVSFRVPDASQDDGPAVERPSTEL
Sodium-dependent noradrenaline transporter, sequence (P23975 whole entry): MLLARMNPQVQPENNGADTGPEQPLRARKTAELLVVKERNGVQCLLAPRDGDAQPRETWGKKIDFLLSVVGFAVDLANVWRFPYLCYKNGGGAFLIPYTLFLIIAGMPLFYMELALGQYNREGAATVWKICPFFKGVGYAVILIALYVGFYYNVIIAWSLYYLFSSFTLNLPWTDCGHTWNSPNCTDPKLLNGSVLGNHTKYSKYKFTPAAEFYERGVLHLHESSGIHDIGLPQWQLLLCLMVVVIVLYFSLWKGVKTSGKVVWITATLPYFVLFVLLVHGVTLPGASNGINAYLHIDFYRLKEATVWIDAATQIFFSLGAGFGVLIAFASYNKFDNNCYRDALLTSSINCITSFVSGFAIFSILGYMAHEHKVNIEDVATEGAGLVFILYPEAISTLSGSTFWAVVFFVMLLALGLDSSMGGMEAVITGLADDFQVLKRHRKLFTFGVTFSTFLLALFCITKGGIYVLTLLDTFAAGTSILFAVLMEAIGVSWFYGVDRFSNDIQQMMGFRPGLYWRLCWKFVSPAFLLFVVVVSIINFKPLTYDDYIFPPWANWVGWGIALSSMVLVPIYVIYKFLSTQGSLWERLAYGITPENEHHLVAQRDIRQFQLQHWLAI
Sodium-dependent dopamine transporter, sequence (Q01959 whole entry): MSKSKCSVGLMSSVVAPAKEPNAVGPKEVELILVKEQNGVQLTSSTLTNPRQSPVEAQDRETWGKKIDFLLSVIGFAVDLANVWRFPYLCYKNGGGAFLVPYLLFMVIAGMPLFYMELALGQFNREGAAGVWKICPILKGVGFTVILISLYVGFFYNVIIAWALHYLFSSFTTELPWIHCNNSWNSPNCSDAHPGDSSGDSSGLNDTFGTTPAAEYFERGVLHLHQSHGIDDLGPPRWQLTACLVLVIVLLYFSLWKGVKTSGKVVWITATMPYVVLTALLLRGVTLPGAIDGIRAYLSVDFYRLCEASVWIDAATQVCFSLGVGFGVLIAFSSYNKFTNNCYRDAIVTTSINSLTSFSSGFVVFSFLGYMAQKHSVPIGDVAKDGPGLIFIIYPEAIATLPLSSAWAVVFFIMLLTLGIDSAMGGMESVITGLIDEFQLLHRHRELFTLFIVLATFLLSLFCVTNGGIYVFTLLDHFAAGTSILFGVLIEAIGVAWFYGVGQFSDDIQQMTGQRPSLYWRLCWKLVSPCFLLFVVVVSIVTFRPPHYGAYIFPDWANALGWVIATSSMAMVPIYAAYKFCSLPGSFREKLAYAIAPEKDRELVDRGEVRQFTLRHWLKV
Voltage-gated inwardly rectifying potassium channel KCNH2, sequence (Q12809 whole entry): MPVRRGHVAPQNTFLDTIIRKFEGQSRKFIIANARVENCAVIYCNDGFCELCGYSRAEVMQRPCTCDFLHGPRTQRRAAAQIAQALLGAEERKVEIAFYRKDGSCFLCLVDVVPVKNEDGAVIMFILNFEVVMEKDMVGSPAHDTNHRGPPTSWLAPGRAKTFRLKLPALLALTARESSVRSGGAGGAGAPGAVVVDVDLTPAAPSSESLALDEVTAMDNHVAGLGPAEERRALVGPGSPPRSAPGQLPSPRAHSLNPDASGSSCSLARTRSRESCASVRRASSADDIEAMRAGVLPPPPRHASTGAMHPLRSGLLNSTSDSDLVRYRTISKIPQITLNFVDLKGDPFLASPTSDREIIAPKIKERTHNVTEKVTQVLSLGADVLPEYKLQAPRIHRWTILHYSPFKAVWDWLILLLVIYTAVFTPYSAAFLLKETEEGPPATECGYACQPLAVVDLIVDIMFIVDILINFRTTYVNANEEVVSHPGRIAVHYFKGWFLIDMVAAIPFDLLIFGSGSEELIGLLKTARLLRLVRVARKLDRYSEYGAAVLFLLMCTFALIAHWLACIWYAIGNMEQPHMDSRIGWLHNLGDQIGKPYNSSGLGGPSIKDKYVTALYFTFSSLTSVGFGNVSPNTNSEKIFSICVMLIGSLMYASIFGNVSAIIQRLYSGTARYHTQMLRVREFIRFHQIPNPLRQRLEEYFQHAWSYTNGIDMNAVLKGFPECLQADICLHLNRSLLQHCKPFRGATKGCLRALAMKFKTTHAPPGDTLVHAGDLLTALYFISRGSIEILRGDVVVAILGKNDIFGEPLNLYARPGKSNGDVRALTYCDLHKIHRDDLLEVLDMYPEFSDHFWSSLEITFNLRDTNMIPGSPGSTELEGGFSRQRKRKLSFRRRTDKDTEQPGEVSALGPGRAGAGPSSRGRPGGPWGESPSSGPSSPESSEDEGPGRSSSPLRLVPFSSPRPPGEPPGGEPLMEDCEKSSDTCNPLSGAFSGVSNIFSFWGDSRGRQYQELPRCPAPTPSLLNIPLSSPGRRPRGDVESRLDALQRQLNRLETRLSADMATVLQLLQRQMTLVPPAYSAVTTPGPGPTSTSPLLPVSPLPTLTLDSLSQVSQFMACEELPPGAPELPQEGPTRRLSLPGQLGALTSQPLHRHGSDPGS
Acetylcholinesterase, sequence (P22303 whole entry): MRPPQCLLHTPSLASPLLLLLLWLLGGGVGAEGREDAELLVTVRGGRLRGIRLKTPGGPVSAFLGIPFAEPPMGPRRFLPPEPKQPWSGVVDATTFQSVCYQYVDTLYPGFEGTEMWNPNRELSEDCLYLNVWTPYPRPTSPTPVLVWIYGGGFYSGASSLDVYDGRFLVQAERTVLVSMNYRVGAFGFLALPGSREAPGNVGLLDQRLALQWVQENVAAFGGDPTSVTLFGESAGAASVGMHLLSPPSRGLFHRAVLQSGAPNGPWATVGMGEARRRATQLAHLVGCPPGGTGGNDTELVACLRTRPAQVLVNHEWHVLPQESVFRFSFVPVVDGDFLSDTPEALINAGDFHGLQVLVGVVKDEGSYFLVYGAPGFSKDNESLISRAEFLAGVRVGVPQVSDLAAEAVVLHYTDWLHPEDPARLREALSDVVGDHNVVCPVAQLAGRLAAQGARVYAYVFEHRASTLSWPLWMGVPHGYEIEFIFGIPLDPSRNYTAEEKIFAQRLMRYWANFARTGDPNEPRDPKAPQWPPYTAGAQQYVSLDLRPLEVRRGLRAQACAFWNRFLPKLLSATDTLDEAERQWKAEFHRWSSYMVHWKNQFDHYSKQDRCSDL
Mu-type opioid receptor, sequence (P35372 whole entry): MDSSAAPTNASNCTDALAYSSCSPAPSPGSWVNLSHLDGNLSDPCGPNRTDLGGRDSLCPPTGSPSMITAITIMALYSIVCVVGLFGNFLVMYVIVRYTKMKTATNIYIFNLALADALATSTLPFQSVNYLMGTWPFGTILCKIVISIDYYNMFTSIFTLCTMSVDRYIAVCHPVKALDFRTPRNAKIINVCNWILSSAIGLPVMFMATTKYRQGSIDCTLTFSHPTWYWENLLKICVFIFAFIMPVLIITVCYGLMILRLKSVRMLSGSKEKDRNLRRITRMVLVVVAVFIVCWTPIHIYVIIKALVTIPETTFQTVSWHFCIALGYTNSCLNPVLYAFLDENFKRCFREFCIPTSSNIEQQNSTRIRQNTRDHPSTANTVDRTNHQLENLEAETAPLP
D(3) dopamine receptor, sequence (P35462 whole entry): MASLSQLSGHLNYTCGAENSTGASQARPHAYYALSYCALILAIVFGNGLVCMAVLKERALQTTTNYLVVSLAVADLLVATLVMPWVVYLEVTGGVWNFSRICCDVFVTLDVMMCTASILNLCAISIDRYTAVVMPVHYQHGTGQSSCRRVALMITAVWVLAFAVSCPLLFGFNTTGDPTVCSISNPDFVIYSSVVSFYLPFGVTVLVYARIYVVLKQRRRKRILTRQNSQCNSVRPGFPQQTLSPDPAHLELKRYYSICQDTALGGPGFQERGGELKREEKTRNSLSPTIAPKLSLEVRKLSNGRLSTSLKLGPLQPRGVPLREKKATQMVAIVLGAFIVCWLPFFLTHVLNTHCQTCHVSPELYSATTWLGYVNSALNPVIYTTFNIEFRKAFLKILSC

Structure (SMILES) | AC50 [1] | AC50 [2] | AC50 [3] | AC50 [4] | AC50 [5] | AC50 [6] | AC50 [7] | AC50 [8] | AC50 [9] | AC50 [10] | AC50 [11] | AC50 [12] | AC50 [13] | AC50 [14] | AC50 [15]
CN(CCCN1c2ccccc2CCc2ccccc21)CC(=O)c1ccc(Cl)cc1 [LOFEPRAMINE] | 3.3 µM |  |  |  |  |  |  |  |  |  |  |  |  |  | 
CCCC1C(=O)N2C(N(C)C)=Nc3ccc(C)cc3N2C1=O (stereo not drawn) [APAZONE] | > 30 µM | > 30 µM | > 30 µM | > 30 µM | > 30 µM | > 30 µM | > 30 µM | > 30 µM | > 30 µM | > 30 µM | > 30 µM | > 30 µM | > 30 µM | 8.41 µM | 
CN(C)CCCN1c2ccccc2Sc2ccccc21 [PROMAZINE] | 8.1 µM |  |  |  |  |  |  |  |  |  |  |  |  |  | 
Nc1nc2c(ncn2CCC(CO)CO)c(=O)[nH]1 [PENCICLOVIR] | > 30 µM | > 30 µM | > 30 µM |  | > 30 µM | > 30 µM | > 30 µM | > 30 µM | > 30 µM | > 30 µM | > 30 µM | > 30 µM | > 30 µM | > 30 µM | > 30 µM
CC(C(=O)O)c1ccc2c(c1)Cc1cccnc1O2 (stereo not drawn) [PRANOPROFEN] | > 30 µM | > 30 µM | > 30 µM | > 10 µM | > 30 µM | > 30 µM | > 30 µM | > 30 µM | > 30 µM | > 30 µM | > 30 µM | > 30 µM | > 30 µM | 0.478 µM | 
NS(=O)(=O)c1cc(Cl)c(Cl)c(S(N)(=O)=O)c1 [DICHLORPHENAMIDE] | > 30 µM |  |  |  |  |  |  |  |  |  |  |  |  |  | 
CN(C/C=C/c1ccccc1)Cc1cccc2ccccc12 [NAFTIFINE] | 2.02 µM |  |  |  |  |  |  |  |  |  |  |  |  |  | 
CN1CCN(C(c2ccccc2)c2ccccc2)CC1 [CYCLIZINE] | 20 µM | > 30 µM | 2.21 µM |  | 1.98 µM | 24.9 µM | > 30 µM | > 30 µM | 14.4 µM | > 30 µM | > 30 µM | > 30 µM | > 30 µM | > 30 µM | > 30 µM
C[C@@H]1C[C@H]2[C@@H]3CCC4=CC(=O)C=C[C@]4(C)[C@@]3(F)[C@@H](O)C[C@]2(C)[C@H]1C(=O)CO [DESOXIMETASONE] | > 30 µM | > 30 µM | > 30 µM |  | > 30 µM | > 30 µM | > 30 µM | > 30 µM | > 30 µM | > 30 µM | > 30 µM | > 30 µM | > 30 µM | > 30 µM | 
Oc1cccc2cccnc12 [OXYQUINOLINE] |  | 20.8 µM | > 30 µM |  | > 30 µM | > 30 µM | > 30 µM | > 30 µM | > 30 µM | > 30 µM | > 30 µM | > 30 µM | > 30 µM | > 30 µM | 
CC(=O)N(CC(O)CO)c1c(I)c(C(=O)NCC(O)CO)c(I)c(C(=O)NCC(O)CO)c1I (stereo not drawn) [IOHEXOL] | > 30 µM |  |  |  |  |  |  |  |  |  |  |  |  |  | 
N[C@@H](CSCC(=O)O)C(=O)O [CARBOCYSTEINE] | > 30 µM |  |  |  |  |  |  |  |  |  |  |  |  |  | 
O=P(O)(O)C(O)(Cc1cccnc1)P(=O)(O)O [RISEDRONIC ACID] | > 30 µM |  |  |  |  |  |  |  |  |  |  |  |  |  | 

Reference: ChEMBL document CHEMBL5291721, “A preclinical secondary pharmacology resource illuminates target-adverse drug reaction associations of marketed drugs” (Nat Commun, 2023)
